Reference: patent publication US20110104121A1, “Female Reproductive Tract and Anal Prophylaxes” (priority 2008, published 2011)

B1: Lactobacillus-derived CV-N: HIV inhibitor Cyanovirin-N produced by engineered vaginal Lactobacillus (protein, UniProt P81180 1-101, looked up)
Cyanovirin-N: LGKFSQTCYNSAIQGSVLTSTCERTNGGYNTSSIDLNSVIENVDGSLKWQPSNFIETCRNTQLAGSSELAAECKTRAQQFVSTKINLDDHIANIDGTLKYE
modifications: produced in engineered Lactobacillus

Experiments:
uterine cells = experiment: relative mRNA expression of SLPI and defensins in uterine cells; format: cell-based; conditions: for relative uterine alpha defensin 2 expression: saline control ~0.2×10^5; for relative beta defensin 4 mRNA expression in uterine cells: saline control ~0.4×10^5
Description: (§1) The analysis of SERM activity is carried out using fresh hysterectomy tissues, wherein epithelial cells, neutrophils, NK cells and macrophage/dendritic cells (MAC/DC), which are known to be responsive in culture to sex hormones, are recovered. Using conventional assays, SERMs (e.g., Tamoxifen, bazedoxifene acetate, lasofoxifene and raloxifene, etc) are analyzed for their ability to regulate immunological endpoints which have been identified as optimal for protection against HIV. […] Similarly, ICI 182,780 increased relative vaginal SLPI mRNA levels by 26-fold over saline controls. Furthermore, ICI 182,780, tamoxifen, and Y134 increased relative uterine alpha defensin 2 expression (˜3×10^5, ˜4×10^5, and −1.2×10^6, respectively) compared to ˜0.2×10^5 in the saline control. ICI 182,780, Y134, and PHTPP were also found to increase relative vaginal alpha defensin 2 expression (˜2.4×10^5, ˜4×10^5, and ˜1.6×10^5, respectively) compared to −7.5×10^4 in the saline control.

[1] = test system: primary uterine epithelial cells; experiment: MIP3 alpha secretion by primary uterine epithelial cells, ELISA; format: cell-based, mice; conditions: 20 hours, 37° C., vs media control
Description: FIG. 1 depicts levels of MIP3 alpha secretion by primary uterine epithelial cells at 20 hours after exposure to estrogen, ICI […] or the SERMs indicated. P value is comparison to media control.
Indeed, FIG. 1 summarizes the effects of estradiol (estrogen) and four known SERMS on the secretion of MIP3 alpha (aka CCL20), a known potent endogenous antimicrobial peptide, by primary uterine epithelial cells in culture. Epithelial cells were isolated from the uteri of intact mice by enzymatic digestion prior to incubation at 37° C. in the presence or absence of known SERMS for 20 hours. Following incubation in 96-well plates, media was collected and assayed by ELISA for MIP3 alpha.

vaginal cells = experiment: relative mRNA expression of SLPI and defensins in vaginal cells; format: cell-based; conditions: for relative mRNA expression of beta defensin 1 in vaginal cells: saline control ~1.1×10^8; for relative vaginal alpha defensin 2 expression: saline control printed −7.5×10^4
Description: as §1

[2] = test system: primary uterine epithelial cells; experiment: mouse KC (IL8) secretion from primary uterine epithelial cells; format: cell-based; conditions: 24-hour treatment
female macrophages = experiment: LPS-induced TNFalpha secretion by female macrophages; format: cell-based
[3] = test system: cervix stromal fibroblasts; experiment: HGF secretion by cervix stromal fibroblasts, ELISA; format: cell-based, human; conditions: estradiol
Description: (§2) Materials and Methods. FRT mucosal tissue was obtained following surgery from women who underwent hysterectomies. Tissues used in this study were distal to the sites of pathology and were determined to be unaffected by disease upon inspection by a trained pathologist. Tissues were transported from Pathology and procedures to isolate stromal fibroblasts began within 2 hours of surgery.
(§3) Tissues from the Fallopian tube, uterus, cervix, and ectocervix were dispersed into epithelial and stromal cell fractions by enzymatic digestion (Fahey, et al. (1998) Immunol. Invest. 27:167-180; Meter, et al. (2005) Fertil. Steril. 84:191-201). […] This procedure was chosen to maximize digestion of the extracellular matrix, as verified by microscopy and by hematoxylin and eosin staining of frozen sections after digestion, while minimizing digestion of cell surface antigens as determined by flow cytometry. […]
(§4) Stromal cell fractions were washed, resuspended in complete media, and cultured in T75 flasks. […] When confluent, the cells in the flask were counted and sub-cultured into 24 well culture plates (Fisher Scientific, Pittsburgh, Pa.). […]
(§5) Once the cells reached confluence, they were cultured in complete media with 10% stripped FBS (Hyclone). […] In related experiments, when cell proliferation was analyzed, harvested from culture wells and counted by Coulter Counter. […]

[4] = test system: Monocytes-derived Dendritic cells (MDDCs); experiment: surface receptor expression on monocyte-derived dendritic cells, flow cytometry; format: cell-based, human
Description: Materials and Methods. Uterine epithelial cell line (ECC-1) was cultured according to established methods to establish cellular polarity with apical and basolateral compartments (Schaefer, et al. (2004) Immunology 112:428-436). The formation of tight junctions by the epithelial cell monolayer was routinely monitored by measurement of transepithelial resistance (TER) (Richardson, et al. (1995) Biol. Reprod. 53:488-498). […] The pooled media was centrifuged for 5 minutes at 10,000 g and stored at −80° C. for use in subsequent studies.
Peripheral blood mononuclear cells (PBMC) were obtained from residues of platelet pheresis according to known methods (Dietz, et al. (2006) Transfusion 46:2083-2089). Monocytes were subsequently enriched with Rosette Sep reagent (StemCell, Vancouver, BC). Blood specimens were from healthy adult males. Monocytes-derived Dendritic cells (MDDCs) were in vitro generated with GM-CSF (50 ng/ml) and IL-4 (50 ng/ml) (PeproTech Inc, Rocky Hill, N.J.) (Sallusto Lanzavecchia (1994) J. Exp. Med. 179:1109-1118). MDDCs were differentiated for 7 days in the presence or absence of 24-hour conditioned medium (1:1 dilution) obtained from ECC-1. In some experiments TGF-beta receptor 1 blocker, SB431542 (10 μM; Tocris Cookson, Inc., St. Louis, Mo.) (Eriksson, et al. (2006) Am. J. Reprod. Immunol. 56:321-328; Shen, et al. (2007) Clin. Exp. Immunol. 149(1):155-61) was simultaneously added with ECC-1 CM for the entire duration of the differentiation. As positive control for TGF-beta effects on MDDCs, experimental conditions were included in which MDDCs were differentiated with recombinant human TGF-beta1 at three different concentrations (0.1, 1 and 10 ng/mL) in the presence or absence of SB431542. Following 7 days of culture, cells were harvested, washed and subsequently used for flow cytometry analyses.
Following six days of in vitro differentiation, surface staining of MDDCs was performed with the following fluorochrome-labeled monoclonal antibodies: CD1a (HI149), CD14 (61D3), from Ebioscience (San Diego, Calif.); and CD163 (215927), CCR5 (45531), CXCR4 (12G5), DC-SIGN (120507) from R&D Systems (Minneapolis, Minn.). Matched isotype controls for the antibodies were used to control for non-specific binding. Following antibody staining, cells were washed with staining buffer and fixed with 2% methanol-free paraformaldehyde in 1×PBS (2% PFA), followed by analysis with a Becton Dickinson FACS CALIBUR (San Jose, Calif.). The acquired FACS data were analyzed by CELL QUEST (BD Biosciences).
Statistical analysis was performed using two-way analysis of variance (ANOVA) ([…] Prism Version 5.0; […] Software Inc., San Diego, Calif.). A value of P<0.05 was considered significant.

[5] = test system: uterine stromal fibroblasts; experiment: HGF secretion by uterine stromal fibroblasts, ELISA; format: cell-based, human
Description: as §2
Tissues from the Fallopian tube, uterus, cervix, and ectocervix were dispersed into epithelial and stromal cell fractions by enzymatic digestion (Fahey, et al. (1998) Immunol. Invest. 27:167-180; Meter, et al. (2005) Fertil. Steril. 84:191-201). Briefly, tissues were minced under sterile conditions into 1-2 mm fragments and then digested at 37° C. for 1 hour using a “PHC” enzyme mixture that contained final concentrations of 3.4 mg/ml pancreatin (Gibco Life Technologies, Rockville, Md.), 0.1 mg/ml hyaluronidase (Worthington Biochemical Corporation, Freehold, N.J.), 1.6 mg/ml collagenase (Worthington) and 2 mg/ml D-glucose (Sigma, St Louis, Mo.) in Hank's balanced salt solution (Gibco, Invitrogen). This procedure was chosen to maximize digestion of the extracellular matrix, as verified by microscopy and by hematoxylin and eosin staining of frozen sections after digestion, while minimizing digestion of cell surface antigens as determined by flow cytometry. After incubating in this enzyme cocktail, cells and tissue fragments were collected, washed with complete media consisting of DMEM/F-12 without phenol red (Gibco) supplemented with 10% heat-inactivated fetal calf serum (Hyclone, Logan, Utah), 2 mM fresh L-glutamine, 25 mM HEPES, […] primocin (InvivoGen, San Diego, Calif.) and separated from tissue aggregates by sedimentation for 5 minutes. Medium containing predominantly single cells and small epithelial cell glands were removed and dispersed through a 250 μm nylon mesh screen (Small Parts, Miami Lake, Fla.). […]
as §4
Once the cells reached confluence, they were cultured in complete media with 10% stripped FBS (Hyclone). […] In related experiments, when cell proliferation was analyzed, harvested from culture wells and counted by Coulter Counter. […] Viability of the cultures was determined using trypan blue dye exclusion and manual counting of live vs. dead cells on a hemocytometer. […]

[6] = test system: ectocervix stromal fibroblasts; experiment: HGF secretion by ectocervix stromal fibroblasts, ELISA; format: cell-based, human; conditions: estradiol
Description: as §2, §3, §4, §5

CCR5-tropic HIV = conditions: in vitro; read-out: 50% inhibitory concentration, CCR5-tropic HIV infectivity; cited from earlier work
[7] = Table 5, control vehicle, N = 3
[8] = Table 4, control vehicle, N = 3

Row | Molecule | increase in relative uterine SLPI mRNA levels over saline controls (uterine cells) | relative uterine alpha defensin 2 expression (uterine cells) | relative beta defensin 4 mRNA expression in uterine cells (uterine cells) | MIP3 alpha secretion [1] | relative mRNA expression of beta defensin 2 in vaginal cells (vaginal cells) | relative mRNA expression of beta defensin 1 in vaginal cells (vaginal cells) | secretion of mouse KC (IL8) [2] | TNFalpha (% of Control) (female macrophages; [7]) | relative vaginal alpha defensin 2 expression (vaginal cells) | TNFalpha (% of Control) (female macrophages; [8]) | also measured
1 | CC/C(=C(\c1ccccc1)c1ccc(OCCN(C)C)cc1)c1ccccc1 [tamoxifen] | ~2.5×10^5 | ~4×10^5 | ~6×10^5 | marginal effect | not significantly affected | ~1.75×10^8 | marginal effect | – | – | – | relative beta defensin 4 mRNA expression in vaginal cells (vaginal cells; saline control ~1×10^7): ~2.1×10^8
2 | Oc1ccc(-c2c(-c3ccccc3)nn3c(C(F)(F)F)cc(C(F)(F)F)nc23)cc1 [PHTPP] | ~8×10^5 | – | ~8×10^5 | marginal effect | not significantly affected | – | marginal effect | 79.96 ± 6.43 % of Control | ~1.6×10^5 | – | relative mRNA expression of beta defensin 2 in uterine cells (uterine cells; saline control ~1×10^5): ~1.55×10^8; relative mRNA expression of beta defensin 1 in uterine cells (uterine cells; saline control ~1.1×10^6): ~1.05×10^8
3 | C[C@]12CC[C@@H]3c4ccc(O)cc4C[C@@H](CCCCCCCCC[S+]([O-])CCCC(F)(F)C(F)(F)F)[C@H]3[C@@H]1CC[C@@H]2O (stereo partly shown) [ICI 182,780] | ~3×10^5 | ~3×10^5 | – | significantly increased | not significantly affected | ~2.15×10^8 | significantly increased | – | ~2.4×10^5 | 111.87 ± 15.68 % of Control | increase in relative vaginal SLPI mRNA levels over saline controls (vaginal cells): 26 fold
4 | C[C@]12CC[C@@H]3c4ccc(O)cc4CC[C@H]3[C@@H]1CC[C@@H]2O [E2, 17β-estradiol] | – | – | – | no effect | – | – | – | 73.96 ± 3.00 % of Control | – | 73.96 ± 3.00 % of Control | HGF secretion by cervix stromal fibroblasts [3]: did not increase; DC-SIGN expression on immature DCs [4]: increases; uterine stromal fibroblast HGF secretion ([5]; 10^−7 M or 10^−8 M estradiol, within 48 hours): significantly increased; estradiol response of HGF at 24 hours, responding patients ([5]; 24 hours after addition of estradiol): two out of five patients; cell numbers, control vs estradiol-treated wells ([5]; counted at 48-hour intervals): did not differ; HGF secretion, six days vs two days of exposure ([5]; estradiol 2, 4, 6 days, CM collected at 48 hour intervals): three times more HGF; secretion of HGF from ectocervix stromal fibroblasts [6]: no effect; TNFalpha (% of Control) (female macrophages; E2 0.001 nM, control no E2, N = 4): 98.35 ± 3.19 % of Control; TNFalpha (% of Control) (female macrophages; E2 0.01 nM, control no E2, N = 4): 97.72 ± 6.89 % of Control; TNFalpha (% of Control) (female macrophages; E2 0.1 nM, control no E2, N = 4): 94.68 ± 11.62 % of Control
5 | B1 | – | – | – | – | – | – | – | – | – | – | IC50 (CCR5-tropic HIV): 0.3 nM
